Measurements published in US20150105252A1, “SUBSTITUTED PYRAZOLES AS HERBICIDES” (E I DU PONT DE NEMOURS AND COMPANY, priority 2013, published 2015).

Assays:
[1] = tested on: velvetleaf; test: Test A postemergence; assay type: in vivo, Abutilon theophrasti
In short: (§1)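 Seeds were sown in a loam soil–sand blend and given a directed soil spray preemergence; postemergence plants at 2–10 cm, one- to two-leaf stage, were sprayed with compound in non-phytotoxic solvent with surfactant. After about 10 days in a greenhouse, injury was visually rated against untreated controls (0 = no effect, 100 = complete control).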

[2] = tested on: barnyardgrass; test: Test A postemergence; assay type: in vivo, Echinochloa crus-galli
In short: as §1

[3] = tested on: foxtail, giant; test: Test A preemergence; assay type: in vivo, Setaria faberii; settings: preemergence
In short: as §1

[4] = tested on: barnyardgrass; test: Test B flood; assay type: in vivo, Echinochloa crus-galli; settings: 250 g ai/ha, visual rating on 0 to 100 scale (0 no effect, 100 complete control), 13 to 15 days
In short: (§2)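 Plants were grown to the 2-leaf stage, then pots were flooded to 3 cm above the soil and compounds were applied directly into the paddy water. Water depth was held for the whole test; after 13 to 15 days in a greenhouse, injury was visually rated against untreated controls (0 = no effect, 100 = complete control).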

[5] = tested on: sedge, umbrella; test: Test B flood; assay type: in vivo, Cyperus difformis; settings: 250 g ai/ha, visual rating on 0 to 100 scale (0 no effect, 100 complete control), 13 to 15 days
In short: as §2

[6] = tested on: wheat; test: Test A preemergence; assay type: in vivo, Triticum aestivum; settings: preemergence
In short: as §1

[7] = tested on: pigweed; test: Test C preemergence; assay type: in vivo, Amaranthus retroflexus; settings: for Plant response rating (scale of 0 to 100), Pigweed: Preemergence; for Pigweed plant response rating / Plant response rating, Pigweed: preemergence; for Plant response rating, Pigweed: 125 g ai/ha, scale 0 to 100, 0 = no effect, 100 = complete control
In short: (§3)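 Greenhouse pot test: preemergence application onto freshly seeded loam/sand mix, postemergence application onto seedlings (1–4 leaves, 2–18 cm) in peat-vermiculite substrate. Responses scored visually 13 to 15 days later relative to controls, where 0 means no effect and 100 means complete control; a dash indicates no result.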

[8] = tested on: corn; test: Test A preemergence; assay type: in vivo, Zea mays; settings: preemergence
In short: as §1

[9] = tested on: foxtail, giant; test: Test A postemergence; assay type: in vivo, Setaria faberii
In short: as §1

[10] = tested on: crabgrass, large; test: Test C preemergence; assay type: in vivo, Digitaria sanguinalis; settings: for Plant response rating (scale of 0 to 100), Crabgrass, Large: Preemergence; for Crabgrass, Large plant response rating / Plant response rating, Crabgrass, Large: preemergence; for Plant response rating, Crabgrass, Large: 125 g ai/ha, scale 0 to 100, 0 = no effect, 100 = complete control
In short: as §3

[11] = tested on: velvetleaf; test: Test A preemergence; assay type: in vivo, Abutilon theophrasti; settings: preemergence
In short: as §1

[12] = tested on: barnyardgrass; test: Test A preemergence; assay type: in vivo, Echinochloa crus-galli; settings: preemergence
In short: as §1

[13] = tested on: morningglory; test: Test C preemergence; assay type: in vivo, Ipomoea coccinea; settings: for Plant response rating (scale of 0 to 100), Morningglory: Preemergence; for Morningglory plant response rating / Plant response rating, Morningglory: preemergence; for Plant response rating, Morningglory: 125 g ai/ha, scale 0 to 100, 0 = no effect, 100 = complete control
In short: as §3

[14] = tested on: nutsedge, yellow; test: Test C preemergence; assay type: in vivo, Cyperus esculentus; settings: for Plant response rating (scale of 0 to 100), Nutsedge, Yellow: Preemergence; for Nutsedge, Yellow plant response rating / Plant response rating, Nutsedge, Yellow: preemergence; for Plant response rating, Nutsedge, Yellow: 125 g ai/ha, scale 0 to 100, 0 = no effect, 100 = complete control
In short: as §3

[15] = Postemergence, 500 g ai/ha, 0 to 100 scale (0 no effect, 100 complete control)
[16] = postemergence, 125 g ai/ha, about 10 days, visual rating on 0 to 100 scale (0 no effect, 100 complete control)
[17] = 125 g ai/ha, visual injury, 0 to 100 scale, approx. 10 days
[18] = 500 g ai/ha, visual injury after approx. 10 days, 0 to 100 scale (0 no effect, 100 complete control)
[19] = 31 g ai/ha, visual rating, scale 0 to 100 (0 no effect, 100 complete control), 13 to 15 days
[20] = 62 g ai/ha, scale 0 to 100 (0 no effect, 100 complete control), 13 to 15 days
[21] = 250 g ai/ha, scale 0 to 100, 0 is no effect, 100 is complete control

Structure (SMILES) | Velvetleaf plant response rating [1, 15] | Velvetleaf plant response rating [1, 16] | Barnyardgrass plant response rating [2, 15] | Barnyardgrass plant response rating [2, 16] | Foxtail, Giant plant response rating [3, 17] | Foxtail, Giant plant response rating [3, 18] | Plant response rating, Barnyardgrass [4] | Plant response rating, Sedge, Umbrella [5] | Wheat plant response rating [6, 17] | Wheat plant response rating [6, 18] | Pigweed plant response rating [7, 19] | Pigweed plant response rating [7, 20] | Plant response rating, Pigweed ([7]; 13 to 15 days) | Corn plant response rating [8, 17] | Corn plant response rating [8, 18] | Foxtail, Giant plant response rating [9, 15] | Foxtail, Giant plant response rating [9, 16] | Crabgrass, Large plant response rating [10, 19] | Crabgrass, Large plant response rating [10, 20] | Plant response rating, Crabgrass, Large ([10]; 13 to 15 days) | other results
CCCc1cc(C(=O)NCC)nn1Cc1cc(C(F)(F)F)nn1C [Compound 129] | 100 | 90 | 90 | 90 | 100 | 100 | 40 | 95 | 50 | 100 | 100 | 100 | 100 | 10 | 30 | 90 | 80 | 90 | 100 | 100 | Plant response rating (scale of 0 to 100), Pigweed ([7]; 250 g ai/ha): 100; Plant response rating (scale of 0 to 100), Crabgrass, Large ([10]; 250 g ai/ha): 100; Velvetleaf plant response rating [11, 17]: 100; Velvetleaf plant response rating [11, 18]: 100; Barnyardgrass plant response rating [12, 17]: 90; Barnyardgrass plant response rating [12, 18]: 100; Plant response rating (scale of 0 to 100), Morningglory ([13]; 250 g ai/ha): 100; Morningglory plant response rating [13, 19]: 45; Morningglory plant response rating [13, 20]: 98; Plant response rating, Morningglory ([13]; 13 to 15 days): 100; Plant response rating (scale of 0 to 100), Nutsedge, Yellow ([14]; 250 g ai/ha): 75; Nutsedge, Yellow plant response rating [14, 19]: 5; Nutsedge, Yellow plant response rating [14, 20]: 25; Plant response rating, Nutsedge, Yellow ([14]; 13 to 15 days): 60
CCNC(=O)c1cc(CC)n(Cc2ccnc(OC(F)F)c2)n1 [Compound 130] | 100 | 80 | 90 | 70 | 100 | 100 | 40 | 90 | 10 | 90 | 100 | 100 | 100 | 0 | 90 | 90 | 60 | 100 | 100 | 100 | Plant response rating (scale of 0 to 100), Pigweed ([7]; 250 g ai/ha): 100; Plant response rating (scale of 0 to 100), Crabgrass, Large ([10]; 250 g ai/ha): 100; Velvetleaf plant response rating [11, 17]: 70; Velvetleaf plant response rating [11, 18]: 100; Barnyardgrass plant response rating [12, 17]: 90; Barnyardgrass plant response rating [12, 18]: 100; Plant response rating (scale of 0 to 100), Morningglory ([13]; 250 g ai/ha): 100; Morningglory plant response rating [13, 19]: 65; Morningglory plant response rating [13, 20]: 98; Plant response rating, Morningglory ([13]; 13 to 15 days): 100; Plant response rating (scale of 0 to 100), Nutsedge, Yellow ([14]; 250 g ai/ha): 75; Nutsedge, Yellow plant response rating [14, 19]: 25; Nutsedge, Yellow plant response rating [14, 20]: 65; Plant response rating, Nutsedge, Yellow ([14]; 13 to 15 days): 75
CCCNC(=O)c1cc(CC)n(Cc2ccnc(OC(F)F)c2)n1 [Compound 132] | 100 | 100 | 90 | 90 | 100 | 100 | 60 | 90 | 80 | 100 | 100 | 100 | 100 | 40 | 80 | 90 | 80 | 98 | 100 | 100 | Plant response rating (scale of 0 to 100), Pigweed ([7]; 250 g ai/ha): 100; Plant response rating (scale of 0 to 100), Crabgrass, Large ([10]; 250 g ai/ha): 100; Velvetleaf plant response rating [11, 17]: 100; Velvetleaf plant response rating [11, 18]: 100; Barnyardgrass plant response rating [12, 17]: 100; Barnyardgrass plant response rating [12, 18]: 100; Plant response rating (scale of 0 to 100), Morningglory ([13]; 250 g ai/ha): 100; Morningglory plant response rating [13, 19]: 60; Morningglory plant response rating [13, 20]: 100; Plant response rating, Morningglory ([13]; 13 to 15 days): 100; Plant response rating (scale of 0 to 100), Nutsedge, Yellow ([14]; 250 g ai/ha): 70; Nutsedge, Yellow plant response rating [14, 19]: 35; Nutsedge, Yellow plant response rating [14, 20]: 55; Plant response rating, Nutsedge, Yellow ([14]; 13 to 15 days): 80
CCc1cc(C(=O)NC(C)C)nn1Cc1ccnc(C(F)(F)F)c1 [Compound 139] | 90 | 40 | 90 | 80 | 100 | 100 | 60 | 100 | 50 | 100 | 55 | 90 | 90 | 30 | 90 | 90 | 90 | 100 | 100 | 100 | Pigweed plant response rating [7, 21]: 100; Crabgrass, Large plant response rating [10, 21]: 100; Velvetleaf plant response rating [11, 17]: 30; Velvetleaf plant response rating [11, 18]: 100; Barnyardgrass plant response rating [12, 17]: 90; Barnyardgrass plant response rating [12, 18]: 100; Morningglory plant response rating [13, 19]: 5; Morningglory plant response rating [13, 20]: 35; Plant response rating, Morningglory ([13]; 13 to 15 days): 98; Morningglory plant response rating [13, 21]: 98; Nutsedge, Yellow plant response rating [14, 19]: 15; Nutsedge, Yellow plant response rating [14, 20]: 10; Plant response rating, Nutsedge, Yellow ([14]; 13 to 15 days): 35; Nutsedge, Yellow plant response rating [14, 21]: 50
